Results on one molecule are retold here after US6588142B2, “Method of protecting plants from cold injury” (North Carolina State University, priority 2000, dated 2003).

The test system of series [1] is peanut. Put plainly: peanut field study, yield per acre. It counts as in vivo. The source says: (§1) A peanut field was fumigated on April 28 with Metam sodium to control Cylindrocladium. The test plants were planted on May 22 with 16 different varieties of seed (Andru 93; Georgia Green; Tam Run 98; AT120; Southern Runner; Georgia Gold; Georgia Runner; 6K7WIDLEIL; FLA97R; FLAMDR98; FLA84x9B; NC7; VA93B; Perry; VA92R; VA98R), with a two-row planter. Temik and rhizobium were applied in furrow at standard rates. The spray date for the first treatment was July 20; the spray date for the second treatment was August 19. A tractor-mounted sprayer was used for all treatment sprays, with three hollow-cone nozzles per row at 40 psi, and 15 gal water/acre, at a height to cover the entire plant. Only the two treatment rows were sprayed. There were two unsprayed border rows between each treatment, to minimize interplot interference, and to assure even distribution of disease across plots. Herbicides, insecticides, and early leafspot control were applied according to standard practices across the field. Particular treatments were as follows:
(§2) (2) 15.22 fl. oz. Omega 500™ fluazinam 500F/acre (per spray)
(§3) (3) 30.44 fl. oz. Omega 500™ fluazinam 500F/acre (per spray)
(§4) (4) 60.88 fl. oz. Omega 500™ fluazinam 500F/acre (per spray)
(§5) (5) 32.0 fl. oz. Rovral™ brand iprodione+7.68 fl. oz. Nufilm™ adjuvant per acre (per spray)
Peanuts were dug on November 10, and harvested on November 15. Moisture samples were taken from untreated plots of each variety. Yields were adjusted to 9% moisture.
(§6) Data: Statistics were run using the SAS System using the General Linear Models Procedure.

The conditions of series [2]: pH 7; cited from earlier work.
For the next series, the system named is Sclerotinia blight. Put plainly: peanut field study, disease incidence. The format is in vivo.
Source text: as §1, §2, §3, §4, §5, §6

Series [3] has as its system peanut. Put plainly: peanut field study, frost injury rating. The format is in vivo. The note with it: for Frost Injury, Pr > |T|: frost 66 days after last spray.
Source text: as §1, §2, §3, §4, §5
Frost occurred on October 25. Frost ratings were done on November 2d. Rating Index: 1<5% green leaves, 4>50% green leaves; values between 1 and 4 were scaled from 5 to 50%. Stems were not rated, and varied from completely brown, to black, to bright green. When rating percentage of green leaves in a plot, those obviously dead from disease were ignored, and the rating was based on the remaining leaves.
as §6

Where [4] appears, read: treatment effect on various peanut cultivars.

Turning to `O=[N+]([O-])c1cc(C(F)(F)F)c(Cl)c([N+](=O)[O-])c1Nc1ncc(C(F)(F)F)cc1Cl` [fluazinam], the “Yield/Acre, Pr > |T|” value with peanut [1] (High Rate vs Control) and in the series with peanut [1] (High Rate vs Rovral) was 0.0001 throughout. For the same molecule, the yields result in the series on peanut [1] (high rate, vs both Untreated Control and Rovral) is reported as “statistically significantly higher”; in the series on peanut [1] (treatment effect) it was “significantly higher”. Further, the water solubility in series [2] is on record as 0.071 ppm. In addition, the “Disease Incidence, Pr > |T|” value with Sclerotinia blight (High Rate vs Control) was 0.0001; in the series on Sclerotinia blight (High Rate vs Rovral), 0.3911. Besides, the disease control result is on record as “not significantly better” in the series on Sclerotinia blight (High Rate vs Rovral) and “statistically significantly better disease control” in the series on Sclerotinia blight (high rate, vs Untreated Control). For the same molecule, the Sclerotinia blight result in the series with Sclerotinia blight (setting [4]) is reported as “significantly reduced”. Also, the “Frost Injury, Pr > |T|” value with peanut [3] (High Rate vs Control) and in the series on peanut [3] (High Rate vs Rovral) was 0.0001 each time. For the same molecule, the frost protection entry with peanut [3] (high rate, compared to both Untreated Control and Rovral) is on record as “statistically significantly better frost protection”. In addition, the frost injury result in the series on peanut [3] (setting [4]) is reported as “significantly reduced”.
